Reference: patent publication US20130022620A1, “ASSAYS AND METHODS PERTAINING TO PRE-AMYLOID INTERMEDIATES” (priority 2011, published 2013)
Positions of bridges follow the written chain, without caps; N, C: chain ends. No end group written: not given here.

Columns and labels:
rat INS-1 β-cells = assay: AlamarBlue cell viability assay of β-cells; format: cell-based
Experimental: Transformed rat insulinoma-1 (INS-1) β-cells (which express RAGE) are a pancreatic beta cell line commonly used for studies of h-IAPP induced toxicity. INS-1 cells were grown in RPMI 1640 supplemented with 10% fetal bovine serum (FBS), 11 mM glucose, 10 mM Hepes, 2 mM L-glutamine, 1 mM sodium pyruvate, 50 μM β-mercaptoethanol, 100 U/ml penicillin, and […] streptomycin. Cells were maintained at 37° C./5% CO2.
Cyto-toxicity was measured by AlamarBlue assay. INS-1 β-cells were seeded at a density of 30,000 cells per well in 96-well plates and cultured for 24 hours prior to stimulation with IAPP. Human and rat IAPP were dissolved and incubated in 16 mM tris HCl (pH 7.4, 25° C.) prior to cell stimulation. AlamarBlue was diluted ten-fold in culture media and cells were incubated for 5 hours at 37° C. Fluorescence (excitation 530; emission 590 nm) was measured on a Beckman Coulter DTX880 fluorescent plate reader. Values calculated were relative to those of control cells treated with buffer only. All values represent means±SEM (n=3).
Changes in cell morphology were examined by light microscopy to provide a second method of evaluating cell viability. Transformed rat INS-1 beta cells were photographed immediately prior to assessment of toxicity by Alamar blue cell viability assays. Images were taken using an Olympus BX-61 light microscope.

[1] = Thioflavin-T kinetics and TEM of amyloid formation by IAPP peptides; format: physicochemical
Experimental: Thioflavin-T fluorescence was used to monitor the time course of h-IAPP amyloid formation in the presence and absence of sRAGE. To identify which form(s) of h-IAPP interact with RAGE, sRAGE was added to h-IAPP at various time points during the h-IAPP amyloid formation reaction. Aliquots of the reaction mixture were analyzed by adding 100 uL aliquots of the amyloid formation reaction to 96-well plates containing 8 uL of 60 uM thioflavin-T solution at various incubation times after initiation of the amyloid formation reaction. Fluorescence was measured using a Beckman Coulter DTX880 fluorescent plate reader (excitation: 445 nm and emission: 485 nm). Final solution conditions contained 16 mM tris HCl and […] thioflavin-T (pH 7.4). […] All values represent means±SEM (n=3).
Transient kinetic species of h-IAPP were characterized by TEM. TEM images confirm the presence or absence of amyloid which were indicated by thioflavin-T fluorescence. Aliquots (4 μl) were removed from the reaction mixtures monitored by thioflavin-T assays, placed on a carbon-coated 200-mesh copper grid and negatively stained with saturated uranyl acetate. The samples were imaged with a Philips CM12 transmission electron microscope at the New York University electron microscopy core facility. Final solution conditions contained 16 mM tris HCl (pH 7.4).

sRAGE [2] = target: T1, sRAGE (Homo sapiens, UniProt Q15109); assay: Tryptophan fluorescence quenching assay of sRAGE binding; details: sRAGE added at different time points of the reaction, 1:1 molar ratio
T1 construct: the soluble extracellular domain of RAGE (sRAGE); made in house; host or cells: Sf9 insect cells (baculovirus)
Excerpt: The quenching of tryptophan fluorescence indicates binding. Fluorescence measurements were made at right angle in a […] dual path length quartz cuvette, using a Photon Technology International fluorescent spectrometer (280 nm excitation and 350 nm emission). Background fluorescence from buffer and IAPP peptides were negligible. The fluorescence quantum yield reported for each time point is an average of 20 reads over 20 seconds (2.5 nm bandwidth and 1 second integration time). Final solution conditions contained 16 mM tris HCl (pH 7.4).

sRAGE [3] = target: T1, sRAGE; assay: Difference CD of IAPP peptides with sRAGE; format: binding; details: end point of the reactions
Experimental: CD measurements of IAPP, sRAGE and IAPP/sRAGE reactions were taken at various incubation times. Far-UV CD experiments monitor the development of secondary structure of h-IAPP species and give insight into the conformational requirement for IAPP/RAGE-binding. All CD experiments were performed on an Applied Photophysics circular dichroism spectrophotometer by directly transferring 300 μL of peptide solution from kinetic assays into a 0.1 cm quartz cuvette a few minutes prior to data collection. The CD spectra for sRAGE and tris HCl buffer was subtracted from all RAGE/IAPP mixtures. The final far-UV CD data was collected over the range of 190 to 260 nm. Final solution conditions contained 16 mM tris HCl (pH 7.4).

h-IAPP = target: T2, h-IAPP (Homo sapiens, UniProt P10997); details: I26P point mutant; Fanling et al. 2010; cited from earlier work
T2 sequence (P10997 34-70 limits assumed): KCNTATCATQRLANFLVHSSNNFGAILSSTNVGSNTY

[4] = Ser-20 substitution; Cao et al. 2011; cited from earlier work

T1 sequence (Q15109 23-342): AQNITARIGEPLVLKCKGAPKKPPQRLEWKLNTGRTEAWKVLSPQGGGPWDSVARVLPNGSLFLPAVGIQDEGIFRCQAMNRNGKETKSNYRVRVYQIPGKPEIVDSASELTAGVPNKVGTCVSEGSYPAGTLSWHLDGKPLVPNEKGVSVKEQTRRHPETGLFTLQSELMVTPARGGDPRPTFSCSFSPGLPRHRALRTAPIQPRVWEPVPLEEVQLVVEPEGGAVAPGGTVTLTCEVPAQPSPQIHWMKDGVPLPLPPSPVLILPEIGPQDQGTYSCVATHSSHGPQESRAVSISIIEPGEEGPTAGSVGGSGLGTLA

Substance	toxicity by itself (rat INS-1 β-cells; 40 uM, pH 7.4 25° C.)	effect of the amyloid inhibitor on duration of h-IAPP toxicity (rat INS-1 β-cells; 1:1 mixture with 40 uM h-IAPP)	amyloid formation (thioflavin-T) ([1]; peptide by itself)	binding to sRAGE (tryptophan fluorescence quenching) (sRAGE [2])	interaction with sRAGE (difference CD) (sRAGE [3])	inhibition of h-IAPP amyloid formation (h-IAPP)	onset and duration of toxicity compared to wild type (rat INS-1 β-cells; side-by-side with kinetics, 20 uM for the Ser-20 mutants)	rate of aggregation compared to wild type ([1]; 20 uM, pH 7.4 25° C.)	lag phase and rate of amyloid formation [4]
I26P-IAPP: I26P point mutant of h-IAPP, inhibitor of h-IAPP amyloid formation (KCNTATCATQRLANFLVHSSNNFGAPLSSTNVGSNTY-NH2; disulfide 2-7; N-terminus assumed; SMILES CC(C)C[C@H](NC(=O)[C@H](CCCNC(=N)N)NC(=O)[C@H](CCC(N)=O)NC(=O)[C@@H](NC(=O)[C@H](C)NC(=O)[C@@H]1CSSC[C@H](NC(=O)[C@@H](N)CCCCN)C(=O)N[C@@H](CC(N)=O)C(=O)N[C@@H]([C@@H](C)O)C(=O)N[C@@H](C)C(=O)N[C@@H]([C@@H](C)O)C(=O)N1)[C@@H](C)O)C(=O)N[C@@H](C)C(=O)N[C@@H](CC(N)=O)C(=O)N[C@@H](Cc1ccccc1)C(=O)N[C@@H](CC(C)C)C(=O)N[C@H](C(=O)N[C@@H](Cc1c[nH]cn1)C(=O)N[C@@H](CO)C(=O)N[C@@H](CO)C(=O)N[C@@H](CC(N)=O)C(=O)N[C@@H](CC(N)=O)C(=O)N[C@@H](Cc1ccccc1)C(=O)NCC(=O)N[C@@H](C)C(=O)N1CCC[C@H]1C(=O)N[C@@H](CC(C)C)C(=O)N[C@@H](CO)C(=O)N[C@@H](CO)C(=O)N[C@H](C(=O)N[C@@H](CC(N)=O)C(=O)N[C@H](C(=O)NCC(=O)N[C@@H](CO)C(=O)N[C@@H](CC(N)=O)C(=O)N[C@H](C(=O)N[C@@H](Cc1ccc(O)cc1)C(N)=O)[C@@H](C)O)C(C)C)[C@@H](C)O)C(C)C)	is not toxic by itself	increases the duration of toxicity	does not form amyloid	No binding was detected	does not interact	potent inhibitor of h-IAPP amyloid formation	–	–	–
S20G-IAPP: S20G mutation of human IAPP, SEQ ID NO: 3 (KCNTATCATQRLANFLVHSGNNFGAILSSTNVGSNTY-NH2; disulfide 2-7; N-terminus assumed; SMILES CC[C@H](C)[C@H](NC(=O)[C@H](C)NC(=O)CNC(=O)[C@H](Cc1ccccc1)NC(=O)[C@H](CC(N)=O)NC(=O)[C@H](CC(N)=O)NC(=O)CNC(=O)[C@H](CO)NC(=O)[C@H](Cc1c[nH]cn1)NC(=O)[C@@H](NC(=O)[C@H](CC(C)C)NC(=O)[C@H](Cc1ccccc1)NC(=O)[C@H](CC(N)=O)NC(=O)[C@H](C)NC(=O)[C@H](CC(C)C)NC(=O)[C@H](CCCNC(=N)N)NC(=O)[C@H](CCC(N)=O)NC(=O)[C@@H](NC(=O)[C@H](C)NC(=O)[C@@H]1CSSC[C@H](NC(=O)[C@@H](N)CCCCN)C(=O)N[C@@H](CC(N)=O)C(=O)N[C@@H]([C@@H](C)O)C(=O)N[C@@H](C)C(=O)N[C@@H]([C@@H](C)O)C(=O)N1)[C@@H](C)O)C(C)C)C(=O)N[C@@H](CC(C)C)C(=O)N[C@@H](CO)C(=O)N[C@@H](CO)C(=O)N[C@H](C(=O)N[C@@H](CC(N)=O)C(=O)N[C@H](C(=O)NCC(=O)N[C@@H](CO)C(=O)N[C@@H](CC(N)=O)C(=O)N[C@H](C(=O)N[C@@H](Cc1ccc(O)cc1)C(N)=O)[C@@H](C)O)C(C)C)[C@@H](C)O; listed as Homo sapiens)	–	–	–	–	–	–	faster onset and shorter duration of toxicity compared to wild type	faster rate of aggregation	abolishes the lag phase and increases the rate of amyloid formation
